# Data as given in ChEMBL document CHEMBL5543075, “Phenoxytacrine derivatives: Low-toxicity neuroprotectants exerting affinity to ifenprodil-binding site and cholinesterase inhibition” (Eur J Med Chem, 2024).
# The source made the active and inactive calls. The rule behind the calls is not given here.
# Assays:
# [1] = Toxicity in Wistar rat assessed as reduction in breathing at 10 mg/kg, ip; assay type: organism-based; settings: in vivo
# Rattus norvegicus [2] = experiment: Antipsychotic activity in Wistar rat assessed as effect on pre-pulse inhibition of acoustic startle response at 5 mg/kg, ip measured after 10 mins by pre-pulse inhibition test; assay type: functional, organism-based
# Rattus norvegicus [3] = experiment: Antialzheimer activity against scopolamine-induced cognitive impairment in Wistar rat assessed as decrease in latency to reach platform at 5 mg/kg, ip measured upto 4 days by morris water maze test; assay type: functional, organism-based; settings: time <= 4.0 day
# [4] = target: T1, Glutamate NMDA receptor; GRIN1/GRIN2A (Homo sapiens, UniProt Q05586+Q12879); experiment: Inhibition of recombinant wild type human GluN1/GluN2A receptor expressed in HEK293 cells assessed as reduction in glutamate induced current at -40 mV holding potential by electrophysiology assay; assay type: cell-based
# [5] = Inhibition of recombinant human GluN1/GluN2B F114A mutant receptor expressed in HEK293 cells assessed as reduction in glutamate induced current at -60 mV holding potential by electrophysiology assay; assay type: cell-based
# Rattus norvegicus [6] = experiment: Antipsychotic activity in Wistar rat assessed as effect on locomotor activity at 5 mg/kg, ip measured after 10 mins by open field test; assay type: functional, organism-based
# [7] = Inhibition of recombinant human GluN1 Y109C /GluN2B receptor expressed in HEK293 cells assessed as reduction in glutamate induced current at -60 mV holding potential by electrophysiology assay; assay type: cell-based
# in vitro [8] = settings: human, liver microsomes
# Description: Metabolic stability in human liver microsomes assessed as half life at 3 uM measured upto 45 min in presence of NADPH regenerating system by LC-MS analysis
# [9] = Inhibition of recombinant human GluN1/GluN2B Q110F mutant receptor expressed in HEK293 cells assessed as reduction in glutamate induced current at -60 mV holding potential by electrophysiology assay; assay type: cell-based
# [10] = Cytotoxicity against CHO-K1 cells incubated for 24 hrs by MTT assay; assay type: toxicity, cell-based, Cricetulus griseus; settings: Chinese hamster
# [11] = Inhibition of recombinant human GluN1 deltaATD/GluN2B receptor expressed in HEK293 cells assessed as reduction in glutamate induced current at -40 mV holding potential by electrophysiology assay; assay type: cell-based
# [12] = Toxicity in Wistar rat assessed as loss of activity at 10 mg/kg, ip; assay type: organism-based; settings: in vivo
# [13] = Inhibition of recombinant human GluN1/GluN2B F114A mutant receptor expressed in HEK293 cells assessed as reduction in glutamate induced current at -40 mV holding potential by electrophysiology assay; assay type: cell-based
# in vitro [14] = settings: human, liver microsomes; remark: listed apart in the source
# Description: Metabolic stability in human liver microsomes assessed as intrinsic clearance at 3 uM measured upto 45 min in presence of NADPH regenerating system by LC-MS analysis
# [15] = target: T2, Glutamate NMDA receptor; GRIN1/GRIN2B (Homo sapiens, UniProt Q05586+Q13224); experiment: Inhibition of recombinant human GluN1/GluN2B receptor expressed in HEK293 cells assessed as reduction in glutamate induced current at 1 uM at -60 mV holding potential by electrophysiology assay relative to control; assay type: cell-based
# Rattus norvegicus [16] = experiment: Antialzheimer activity against scopolamine-induced cognitive impairment in Wistar rat assessed as decrease in mean distance from platform at 5 mg/kg, ip measured upto 4 days by morris water maze test (reference value: 51.7 +/-1.5 cm); assay type: functional; settings: time <= 4 day
# [17] = target: T2, Glutamate NMDA receptor; GRIN1/GRIN2B; experiment: Inhibition of recombinant wild type human GluN1/GluN2B receptor expressed in HEK293 cells assessed as reduction in glutamate induced current at -60 mV holding potential by electrophysiology assay; assay type: cell-based
# [18] = Inhibition of recombinant human GluN1 F113A /GluN2B receptor expressed in HEK293 cells assessed as reduction in glutamate induced current at -60 mV holding potential by electrophysiology assay; assay type: cell-based
# [19] = Inhibition of recombinant human GluN1/GluN2B Q110F mutant receptor expressed in HEK293 cells assessed as reduction in glutamate induced current at -40 mV holding potential by electrophysiology assay; assay type: cell-based
# [20] = Inhibition of recombinant human GluN1 deltaATD/GluN2B receptor expressed in HEK293 cells assessed as reduction in glutamate induced current at -60 mV holding potential by electrophysiology assay; assay type: cell-based
# [21] = Inhibition of recombinant human GluN1 F113A /GluN2B receptor expressed in HEK293 cells assessed as reduction in glutamate induced current at -40 mV holding potential by electrophysiology assay; assay type: cell-based
# [22] = target: T2, Glutamate NMDA receptor; GRIN1/GRIN2B; experiment: Inhibition of recombinant wild type human GluN1/GluN2B receptor expressed in HEK293 cells assessed as reduction in glutamate induced current at -40 mV holding potential by electrophysiology assay; assay type: cell-based
# Rattus norvegicus [23] = experiment: Antialzheimer activity against scopolamine-induced cognitive impairment in Wistar rat assessed as increase in number of platform crossing at 5 mg/kg, ip measured upto 4 days by morris water maze test; assay type: functional, organism-based; settings: time <= 4.0 day
# [24] = target: T1, Glutamate NMDA receptor; GRIN1/GRIN2A; experiment: Inhibition of recombinant wild type human GluN1/GluN2A receptor expressed in HEK293 cells assessed as reduction in glutamate induced current at -60 mV holding potential by electrophysiology assay; assay type: cell-based
# Cholinesterase = Cholinesterase (Homo sapiens, UniProt P06276); experiment: Inhibition of human BChE by spectrophotometric Ellman's method
# [25] = Toxicity in Wistar rat assessed as no observed adverse effect level (NOAEL) at 5 mg/kg, ip; assay type: organism-based; settings: in vivo
# [26] = Inhibition of recombinant human GluN1 Y109C /GluN2B receptor expressed in HEK293 cells assessed as reduction in glutamate induced current at -40 mV holding potential by electrophysiology assay; assay type: cell-based
# Acetylcholinesterase = Acetylcholinesterase (Homo sapiens, UniProt P22303); experiment: Inhibition of human AChE by spectrophotometric Ellman's method
# Sequence of Acetylcholinesterase (P22303 whole entry): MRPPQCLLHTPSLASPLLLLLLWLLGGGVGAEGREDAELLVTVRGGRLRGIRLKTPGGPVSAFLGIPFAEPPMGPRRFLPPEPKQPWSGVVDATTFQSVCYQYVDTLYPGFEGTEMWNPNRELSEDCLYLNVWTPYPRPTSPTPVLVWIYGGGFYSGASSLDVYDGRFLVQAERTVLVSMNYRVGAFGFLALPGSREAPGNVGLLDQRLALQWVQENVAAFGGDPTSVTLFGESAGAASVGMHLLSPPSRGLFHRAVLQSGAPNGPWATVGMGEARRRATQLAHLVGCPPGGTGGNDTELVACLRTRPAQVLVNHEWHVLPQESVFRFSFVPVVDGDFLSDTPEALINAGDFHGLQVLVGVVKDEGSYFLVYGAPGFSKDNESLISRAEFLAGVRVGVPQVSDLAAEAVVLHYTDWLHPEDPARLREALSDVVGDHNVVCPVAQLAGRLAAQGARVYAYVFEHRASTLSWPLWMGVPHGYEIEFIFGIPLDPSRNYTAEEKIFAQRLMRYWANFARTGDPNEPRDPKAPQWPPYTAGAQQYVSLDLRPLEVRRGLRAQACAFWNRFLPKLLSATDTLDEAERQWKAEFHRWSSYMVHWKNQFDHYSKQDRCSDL
# Sequence of Cholinesterase (P06276 whole entry): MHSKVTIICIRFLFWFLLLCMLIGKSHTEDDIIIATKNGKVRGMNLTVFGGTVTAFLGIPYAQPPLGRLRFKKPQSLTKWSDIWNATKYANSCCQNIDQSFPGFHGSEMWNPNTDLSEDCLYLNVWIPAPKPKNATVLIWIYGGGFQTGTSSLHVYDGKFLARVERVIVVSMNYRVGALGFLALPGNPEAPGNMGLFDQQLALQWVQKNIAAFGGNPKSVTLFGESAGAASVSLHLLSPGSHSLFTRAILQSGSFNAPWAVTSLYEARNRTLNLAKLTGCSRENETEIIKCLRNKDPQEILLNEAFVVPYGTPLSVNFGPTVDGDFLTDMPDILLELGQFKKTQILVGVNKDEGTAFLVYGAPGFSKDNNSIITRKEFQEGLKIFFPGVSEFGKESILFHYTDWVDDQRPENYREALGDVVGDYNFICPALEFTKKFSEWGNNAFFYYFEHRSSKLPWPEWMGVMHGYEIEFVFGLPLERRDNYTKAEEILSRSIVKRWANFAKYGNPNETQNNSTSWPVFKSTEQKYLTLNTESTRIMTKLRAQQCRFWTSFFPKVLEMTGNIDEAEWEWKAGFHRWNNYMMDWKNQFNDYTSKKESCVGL
# T1 sequence (Q12879 whole entry, other chains not shown): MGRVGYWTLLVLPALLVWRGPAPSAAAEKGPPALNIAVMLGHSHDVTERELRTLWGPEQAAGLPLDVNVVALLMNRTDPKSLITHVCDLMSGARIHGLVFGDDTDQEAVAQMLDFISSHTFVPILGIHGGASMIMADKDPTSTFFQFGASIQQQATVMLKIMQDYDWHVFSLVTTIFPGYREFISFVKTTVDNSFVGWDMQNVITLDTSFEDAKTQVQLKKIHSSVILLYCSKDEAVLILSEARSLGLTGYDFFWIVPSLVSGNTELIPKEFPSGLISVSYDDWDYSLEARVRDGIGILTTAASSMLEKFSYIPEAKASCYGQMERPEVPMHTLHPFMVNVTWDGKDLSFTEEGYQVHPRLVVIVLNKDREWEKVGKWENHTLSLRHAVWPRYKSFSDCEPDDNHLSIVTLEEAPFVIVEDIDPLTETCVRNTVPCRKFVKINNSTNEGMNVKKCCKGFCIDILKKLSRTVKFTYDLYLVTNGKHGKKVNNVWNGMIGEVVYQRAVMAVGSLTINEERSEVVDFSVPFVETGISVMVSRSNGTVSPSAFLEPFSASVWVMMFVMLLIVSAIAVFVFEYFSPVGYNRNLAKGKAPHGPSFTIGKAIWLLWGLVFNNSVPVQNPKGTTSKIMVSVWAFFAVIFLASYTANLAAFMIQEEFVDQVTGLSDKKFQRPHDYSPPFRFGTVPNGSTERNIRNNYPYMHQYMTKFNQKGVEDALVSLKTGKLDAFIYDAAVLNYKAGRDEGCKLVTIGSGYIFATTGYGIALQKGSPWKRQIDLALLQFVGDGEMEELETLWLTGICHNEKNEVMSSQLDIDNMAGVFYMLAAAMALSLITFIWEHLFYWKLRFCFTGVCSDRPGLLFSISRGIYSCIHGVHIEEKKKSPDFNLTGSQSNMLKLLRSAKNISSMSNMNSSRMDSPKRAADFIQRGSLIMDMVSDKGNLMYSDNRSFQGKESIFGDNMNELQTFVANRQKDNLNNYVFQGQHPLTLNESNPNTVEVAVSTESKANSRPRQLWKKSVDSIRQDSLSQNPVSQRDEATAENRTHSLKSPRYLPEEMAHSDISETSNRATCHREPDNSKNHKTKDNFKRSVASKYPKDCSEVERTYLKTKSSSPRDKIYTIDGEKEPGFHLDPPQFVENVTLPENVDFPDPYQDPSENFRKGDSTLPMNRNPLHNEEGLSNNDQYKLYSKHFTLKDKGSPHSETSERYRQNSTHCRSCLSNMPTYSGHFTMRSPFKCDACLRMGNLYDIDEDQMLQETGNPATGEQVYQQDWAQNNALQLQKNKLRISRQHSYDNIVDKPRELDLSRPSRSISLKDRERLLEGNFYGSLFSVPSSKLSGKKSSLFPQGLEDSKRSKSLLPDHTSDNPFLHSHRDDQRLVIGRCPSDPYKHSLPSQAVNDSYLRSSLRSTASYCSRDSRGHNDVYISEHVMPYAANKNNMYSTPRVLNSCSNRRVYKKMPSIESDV
compound,measurement,setting,value
COc1ccccc1Oc1ccc2nc3c(c(N)c2c1)CCCC3.Cl,Activity,[1],Toxic
same,Activity,Rattus norvegicus [2],inactive
same,Activity,Rattus norvegicus [3],inactive
same,IC50,[4],43.8 µM
same,IC50,[5],9.4 µM
same,Activity,Rattus norvegicus [6],inactive
same,IC50,[7],9.5 µM
same,"half-life at 0.75 h, 3 µM",in vitro [8],2.69 h
same,IC50,[9],9.5 µM
same,IC50 at 24 h,[10],43 µM
same,IC50,[11],47.2 µM
same,Activity,[12],Toxic
same,IC50,[13],31.9 µM
same,"microsomal CLint at 0.75 h, 3 µM",in vitro [14],8.61 µL/min/mg
same,inhibition,[15],25.7%
same,Activity,Rattus norvegicus [16],78.7 cm
same,IC50,[17],3.6 µM
same,IC50,[18],1.7 µM
same,IC50,[19],10.3 µM
same,IC50,[20],11.1 µM
same,IC50,[21],2.1 µM
same,IC50,[22],6.8 µM
same,Activity,Rattus norvegicus [23],inactive
same,IC50,[24],10.1 µM
same,IC50,Cholinesterase,0.44 µM
same,Activity,[25],Non-Toxic
same,IC50,[26],8.4 µM
same,IC50,Acetylcholinesterase,0.84 µM
COc1ccc(Oc2ccc3nc4c(c(N)c3c2)CCCC4)cc1,IC50 at 24 h,[10],26 µM
same,inhibition,[15],33.2%
same,IC50,Cholinesterase,7.26 µM
same,IC50,Acetylcholinesterase,2.9 µM
Cc1ccccc1Oc1ccc2nc3c(c(N)c2c1)CCCCC3,IC50 at 24 h,[10],26 µM
same,inhibition,[15],8.8%
same,IC50,Cholinesterase,4.17 µM
same,IC50,Acetylcholinesterase,5.8 µM
Cc1ccccc1Oc1ccc2nc3c(c(N)c2c1)CCCC3,IC50 at 24 h,[10],25 µM
same,inhibition,[15],19.3%
same,IC50,Cholinesterase,4.15 µM
same,IC50,Acetylcholinesterase,3.78 µM
COc1ccc(Oc2ccc3nc4c(c(N)c3c2)CCC4)cc1,IC50 at 24 h,[10],81 µM
same,inhibition,[15],22.7%
same,IC50,Cholinesterase,14.5 µM
same,IC50,Acetylcholinesterase,4.24 µM
Cc1cc(C)cc(Oc2ccc3nc4c(c(N)c3c2)CCCC4)c1,IC50 at 24 h,[10],13 µM
same,inhibition,[15],8.2%
same,IC50,Cholinesterase,3.88 µM
same,IC50,Acetylcholinesterase,1.62 µM
COc1ccccc1Oc1ccc2nc3c(c(N)c2c1)CCCCC3,IC50 at 24 h,[10],74 µM
same,inhibition,[15],57.6%
same,IC50,Cholinesterase,5.48 µM
same,IC50,Acetylcholinesterase,9.62 µM
Cc1ccc(Oc2ccc3nc4c(c(N)c3c2)CCCC4)cc1,IC50 at 24 h,[10],20 µM
same,inhibition,[15],18%
same,IC50,Cholinesterase,1.95 µM
same,IC50,Acetylcholinesterase,3.29 µM
Nc1c2c(nc3ccc(Oc4ccc(Cl)cc4)cc13)CCCCC2,IC50 at 24 h,[10],90 µM
same,inhibition,[15],12%
same,IC50,Cholinesterase,1.85 µM
same,IC50,Acetylcholinesterase,4.22 µM
Nc1c2c(nc3ccc(Oc4ccccc4)cc13)CCC2,IC50 at 24 h,[10],55 µM
same,inhibition,[15],30.3%
same,IC50,Cholinesterase,2.93 µM
same,IC50,Acetylcholinesterase,6.42 µM
Cc1cc(C)cc(Oc2ccc3nc4c(c(N)c3c2)CCC4)c1,IC50 at 24 h,[10],39 µM
same,inhibition,[15],9.6%
same,IC50,Cholinesterase,5.48 µM
same,IC50,Acetylcholinesterase,3.72 µM
Cc1ccc(Oc2ccc3nc4c(c(N)c3c2)CCC4)cc1,IC50 at 24 h,[10],76 µM
same,inhibition,[15],18.7%
same,IC50,Cholinesterase,7.34 µM
same,IC50,Acetylcholinesterase,8.36 µM
Cc1cccc(Oc2ccc3nc4c(c(N)c3c2)CCC4)c1,IC50 at 24 h,[10],34 µM
same,inhibition,[15],18.1%
same,IC50,Cholinesterase,2.81 µM
same,IC50,Acetylcholinesterase,5.28 µM
Cc1cc(C)cc(Oc2ccc3nc4c(c(N)c3c2)CCCCC4)c1,IC50 at 24 h,[10],30 µM
same,inhibition,[15],7.8%
same,IC50,Cholinesterase,5.27 µM
same,IC50,Acetylcholinesterase,0.99 µM
COc1cccc(Oc2ccc3nc4c(c(N)c3c2)CCCCC4)c1,IC50 at 24 h,[10],21 µM
same,inhibition,[15],7.1%
same,IC50,Cholinesterase,2.62 µM
same,IC50,Acetylcholinesterase,4.25 µM
